Source: patent US5677274A (The Government of the United States as represented by the …, priority 1993, dated 1997)

System: CHO cells
Assay type: cell-based, Chinese Hamster

In the case of `CC[C@@]1([C@@H]2O[C@@H]([C@H]3O[C@@](O)(CO)[C@H](C)C[C@@H]3C)C[C@@H]2C)CC[C@H]([C@]2(C)CC[C@]3(C[C@H](O)[C@@H](C)[C@@H]([C@@H](C)[C@@H](OC)[C@H](C)C(=O)O)O3)O2)O1` [monensin], the “decrease in potency of FP33” value is reported as over 100 fold and the “protection against the other three fusion proteins” value is reported as “exceeded 20 fold”.
